{"source": "paper PMC12812011", "about": "(Chemmedchem, 2025)", "key": {"[1]": {"tested_on": "particles pseudotyped with the glycoprotein of vesicular stomatitis virus (VSV-G)", "format": "cell-based"}, "SARS-CoV-2": {"tested_on": "SARS-CoV-2", "parameters": "method as in PMID 32142651, PMID 33676899, PMID 33393462, PMID 32312781, PMID 35382133", "conditions": "cell culture; cited from earlier work"}, "[2]": {"tested_on": "pseudotyped particles bearing the SARS-CoV-2 B.1 S protein", "format": "cell-based", "conditions": "TMPRSS2-dependent entry"}, "[3]": {"tested_on": "pseudotyped particles bearing the SARS-CoV-2 B.1 S protein", "format": "cell-based", "conditions": "TMPRSS2-independent (cathepsin L-dependent) entry"}, "[4]": {"tested_on": "particles pseudotyped with the glycoprotein of vesicular stomatitis virus (VSV-G)", "format": "cell-based", "remark": "listed apart in the source"}, "SARS-CoV-2 infection": {"tested_on": "SARS-CoV-2 infection", "conditions": "cited from earlier work; for benefit to COVID-19 patients: clinical trials, oral (camostat), intravenous (nafamostat)"}, "MCF-10A cells": {"tested_on": "MCF-10A cells", "experiment": "AlamarBlue cell viability assay", "conditions": "concentrations up to 100 µM"}, "salmon testes DNA": {"tested_on": "salmon testes DNA", "experiment": "UV-thermal DNA denaturation with salmon testes DNA", "conditions": "compound to DNA base ratio 0.1, phosphate buffer pH 7", "procedure": "UV thermal denaturation experiments\nThermal melting experiments were conducted with a Varian Cary 300 Bio spectrophotometer equipped\nwith a 6×6 multicell temperature-controlled block. Temperatures were monitored with a thermistor\ninserted into a 1 cm quartz cuvette containing the same volume of water as in the sample cells. Absorbance\nchanges at 260 nm were monitored from a range of 30 °C to 90 °C with a heating rate of 1 °C min -1 and a\ndata collection rate of five points per °C. The salmon sperm DNA was purchased from Sigma Aldrich\n(extinction coefficient ε260= 6600 M-1 cm-1). A quartz cell with a 1 cm path length was filled with a 1 mL\nsolution of DNA or DNA-compound complex.\nwere prepared in a phosphate buffer ([10 mM K2HPO4/KH2PO4], adjusted to pH 7) so that a compound to\nDNA base ratio of 0.1 was obtained. The thermal melting temperatures of the duplex or duplex-compound\ncomplex obtained from the first derivative of the melting curves are reported."}, "poly(dA•dT)2": {"tested_on": "poly(dA•dT)2", "parameters": "method as in PMID 18247550", "conditions": "DNA oligo rich in AT pairs; cited from earlier work"}}, "note": "“Also recorded” adds a separate entry of the source.", "data": [{"molecule": "CN(C)C(=O)COC(=O)Cc1ccc(OC(=O)c2ccc(NC(=N)N)cc2)cc1", "note": "[Camostat, camostat]", "values": [{"measurement": "VSV-G-driven entry into Calu-3 cells", "setting": "[1]", "value": "reverse observation"}, {"measurement": "inhibition of SARS-CoV-2 infection", "setting": "SARS-CoV-2", "value": "inhibit SARS‐CoV‐2 infection with high efficiency"}, {"measurement": "SARS-CoV-2 S protein-mediated entry into Calu-3 cells", "setting": "[2]", "value": "inhibited"}, {"measurement": "SARS-CoV-2 S protein-driven entry into Vero76 cells", "setting": "[3]", "value": "not inhibited"}, {"measurement": "VSV-G-driven entry into Vero76 cells", "setting": "[4]", "value": "not inhibited"}, {"measurement": "benefit to COVID-19 patients", "setting": "SARS-CoV-2 infection", "value": "little if any benefit"}]}, {"molecule": "N=C(N)Nc1ccc(NC(=S)Nc2ccccc2)cc1", "note": "[Compound 2]", "values": [{"measurement": "IC50", "setting": "MCF-10A cells", "value": "could not be found"}, {"measurement": "cytotoxicity (cell death)", "setting": "MCF-10A cells; 72 hours", "value": "no cytotoxicity; also recorded: no significant cell‐death was detected"}, {"measurement": "ΔTm", "setting": "salmon testes DNA", "value": 0.65, "unit": "°C"}]}, {"molecule": "N=C(N)Nc1ccc(NC(=S)Nc2ccccn2)cc1", "note": "[Compound 20]", "values": [{"measurement": "ΔTm", "setting": "salmon testes DNA", "value": "−0.25", "unit": "°C"}]}, {"molecule": "N=C(N)c1ccc2cc(OC(=O)c3ccc(N=C(N)N)cc3)ccc2c1", "note": "[Nafamostat, nafamostat]", "values": [{"measurement": "benefit to COVID-19 patients", "setting": "SARS-CoV-2 infection", "value": "little if any benefit"}]}, {"molecule": "CCN(CC)CCCC(C)Nc1ccnc2cc(Cl)ccc12", "note": "(centres unmarked) [chloroquine]", "values": [{"measurement": "VSV-G-driven entry into Calu-3 cells", "setting": "[1]", "value": "reverse observation"}, {"measurement": "SARS-CoV-2 S protein-driven entry into Vero76 cells", "setting": "[3]", "value": "reduced by the highest concentration"}, {"measurement": "VSV-G-driven entry into Vero76 cells", "setting": "[4]", "value": "reduced by the highest concentration"}]}, {"molecule": "N=C(N)Nc1ccc(NC(=S)Nc2ccc(NC(=N)N)cc2)cc1", "note": "[hit‐compound]", "values": [{"measurement": "ΔTm", "setting": "poly(dA•dT)2", "value": 23.0, "unit": "°C"}]}, {"molecule": "aprotinin", "values": [{"measurement": "clinical benefit in COVID-19 patients", "setting": "SARS-CoV-2 infection; aerosolized", "value": "of clinical benefit"}, {"measurement": "tolerability in COVID-19 patients", "setting": "SARS-CoV-2 infection; aerosolized", "value": "well tolerated"}]}]}
